Measurements published in publication PMC10653080, “Intermolecular Interactions, Solute Descriptors, and Partition Properties of Neutral Per- and Polyfluoroalkyl Substances (PFAS)” (Environmental Science & Technology, 2023).
Where two headings read alike, the source gives them in different places.

Assay: PP-LFER solute descriptor determination from GC retention and partition coefficient data
Assay type: physicochemical
Details: for Solute descriptor S (dipolarity/polarizability parameter): final adjusted value, shared within a PFAS group
Text: The GC columns used were, from low to high polarity, HP-5ms Ultra Inert (poly[5% phenyl/95% methyl]siloxane equivalent; Agilent Technologies, Santa Clara, CA), DB-200 (poly[35% trifluoropropyl/65% methyl]siloxane; Agilent Technologies), DB-225ms (poly[50% cyanopropylphenyl/50% methyl]siloxane equivalent; Agilent Technologies), and SolGel-WAX (polyethylene glycol; Trajan, Ringwood, Australia). Column dimensions were all 30 m × 0.25 mm i.d. with a coating thickness of 0.25 μm.
The method for GC retention time measurements follows that of a previous study.[18] Briefly, a 7890A/5975C GC/MS instrument (Agilent Technologies) equipped with an MPS2 autosampler and CIS4 injector (Gerstel, Mülheim an der Ruhr, Germany) was used for all measurements. For each column, isothermal retention times were measured at four temperatures in the range of 30–120 °C to cover all target compounds. The temperature at the injector and transfer line was fixed at 120 °C. The carrier gas was He at a flow rate of 1.2 mL/min. Compounds were introduced into the GC by injecting either headspace (100–250 μL) above the pure compound or solution in acetone (1 μL). Split injections were performed with a split ratio of 20–250. Column dead time (t0) was determined by injecting air and measuring Ar (m/z 40). From the measured retention time (t), the retention factor (k) was calculated as k = (t–t0)/t0. Measurements with t < t0 + 0.1 min were considered too short and discarded. For each column and temperature, k values were obtained for 29–52 PFAS and 29–48 reference compounds.
The standard procedure for solute descriptor determination was as follows. First, the system parameters in eq 1 were calibrated for each column (or partition system) and temperature by MLR using log k (or log K) data and solute descriptors for reference compounds. Dimethylformamide, 1-pentylamine, dimethylsulfoxide, and dodecamethylcyclohexasiloxane (D6) were removed from the log k data sets, because they frequently appeared as outliers (>3 SD) of the PP-LFER model fit. Reference data sets for hexadecane/water partition coefficients (KHxd/w),[21]Kow,[22] and octanol/air partition coefficients (Koa)[23] were taken from the cited references and amended with data for organosilicon compounds.[24],[25] Similar to PFAS, organosilicon compounds have weak van der Waals interaction properties[9] and it may be beneficial to include them in reference data sets. The solute descriptors for PFAS were then back-calculated by using the calibrated PP-LFER equations. Of the five descriptors, V can be calculated from the molecular structure[26] (note: the fragment value for F from Goss et al.[11] was used), and L was available for the PFAS studied.[18] Thus, the left side of eq 2 was known, and MLR was performed to obtain S, A, and B on the right side. [drawing 2] 2 To determine the three descriptors, a minimum of three k and K data are required for a given PFAS compound. The data used here were: k measured for 60 PFAS in this study, KHxd/w for 21 PFAS,[5]Kow for 12 PFAS (see the Results and Discussion section), and Koa for 3 PFAS.[11]
Key to the accurate determination of the polar interaction descriptors is the availability of K data for partition systems with water as a partition phase because water is a strong H-bond donor and acceptor phase and thus the corresponding K values are sensitive to the H-bonding properties of the solute.[27] In particular, at least one solvent/water or air/water partition coefficient is required to determine B because there is no commonly used GC phase that is a significant H-bond donor. In the data set, KHxd/w is sensitive to both A and B and Kow is sensitive to B. However, KHxd/w and Kow data are not available for all PFAS. To increase the number of PFAS for which descriptors can be determined, the following assumptions were made. […]

[1] = 25 °C, updated in the iterative calculation
[2] = difference of descriptor values

Structure (SMILES)	Solute descriptor L (logarithmic hexadecane/air partition coefficient, KHxd/air) [1]	Solute descriptor S (dipolarity/polarizability parameter)	Solute descriptor L (logarithmic hexadecane/air partition coefficient, KHxd/air)	A value higher than perfluorinated counterpart, perfluorooctane [2]	L value higher than perfluorinated counterpart, perfluorooctane [2]
FC(F)(F)C(F)(F)C(F)(F)C(F)(F)N(C(F)(F)C(F)(F)C(F)(F)C(F)(F)F)C(F)(F)C(F)(F)C(F)(F)C(F)(F)F [PFTBA, Perfluorotributyl amine]	2.302	-0.23			
FC(F)(F)C(F)(F)C(F)(F)C(F)(F)C(F)(F)C(F)(F)C(F)(F)I [PFHpI, Perfluoroheptyl iodide]	2.792	0.07			
FC(F)(F)C(F)(F)C(F)(F)C(F)(F)C(F)(F)C(F)(F)C(F)(F)C(F)(F)C(F)(F)C(F)(F)C(F)(F)C(F)(F)F [PFDoD, Perfluorododecane]		-0.19	2.362		
FC(F)(F)C(F)(F)C(F)(F)C(F)(F)CCI [4:2 FTI, 1H,1H,2H,2H-Perfluorohexyl iodide]	3.325	0.32			
FC(F)C(F)(F)C(F)(F)C(F)(F)C(F)(F)C(F)(F)C(F)(F)C(F)F [1,8-DHPFO, 1H,8H-Perfluorooctane]	2.130	0.38		0.24	0.78
C=CC(=O)OCCC(F)(F)C(F)(F)C(F)(F)C(F)(F)C(F)(F)C(F)(F)F [6:2 FTAC, 1H,1H,2H,2H-Perfluorooctyl acrylate]	4.098	0.54			
OCCC(F)(F)C(F)(F)C(F)(F)C(F)(F)C(F)(F)C(F)(F)C(F)(F)C(F)(F)C(F)(F)C(F)(F)C(F)(F)C(F)(F)F [12:2 FTOH, 1H,1H,2H,2H-Perfluorotetradecan-1-ol]		0.35	4.682		
C=CCOCC(F)(F)C(F)(F)C(F)(F)C(F)(F)C(F)(F)C(F)(F)C(F)(F)F [AFOE, Allyl 1H,1H-perfluorooctyl ether]	3.584	0.30			
FC(F)(F)C(F)(F)C(F)(F)C(F)(F)C(F)(F)C(F)(F)C(F)(F)C(F)(F)C(F)(F)F [PFN, Perfluorononane]	1.571	-0.19			
CC(=O)OCCC(F)(F)C(F)(F)C(F)(F)C(F)(F)C(F)(F)C(F)(F)C(F)(F)C(F)(F)F [8:2 FTAce, 1H,1H,2H,2H-Perfluorodecyl acetate]		0.54	4.234		
OCC(F)(F)C(F)(F)C(F)(F)F [3:1 FTOH, 1H,1H-Perfluorobutan-1-ol]	1.542	0.30			
FC(F)(F)C(F)(F)C(F)(F)C(F)(F)C(F)(F)C(F)(F)C(F)(F)C(F)(F)C(F)(F)C(F)(F)CCI [10:2 FTI, 1H,1H,2H,2H-Perfluorododecyl iodide]		0.32	5.020		
NS(=O)(=O)C(F)(F)C(F)(F)C(F)(F)C(F)(F)C(F)(F)C(F)(F)F [PFHxSA, Perfluorohexanesulfonamide]	4.189	0.96			
C=C(C)C(=O)OCCC(F)(F)C(F)(F)C(F)(F)C(F)(F)C(F)(F)C(F)(F)F [6:2 FTMAC, 1H,1H,2H,2H-Perfluorooctyl methacrylate]	4.553	0.53			
FC(F)(F)C(F)(F)C(F)(F)N(C(F)(F)C(F)(F)C(F)(F)F)C(F)(F)C(F)(F)C(F)(F)F [PFTPrA, Perfluorotripropyl amine]	1.521	-0.26			
C=CC(=O)OCCC(F)(F)C(F)(F)C(F)(F)C(F)(F)C(F)(F)C(F)(F)C(F)(F)C(F)(F)F [8:2 FTAC, 1H,1H,2H,2H-Perfluorodecyl acrylate]	4.661	0.54			
NS(=O)(=O)C(F)(F)C(F)(F)C(F)(F)C(F)(F)C(F)(F)C(F)(F)C(F)(F)C(F)(F)F [PFOSA, Perfluorooctanesulfonamide]		0.96	4.744		
FC(OC(F)(F)C(F)(OC(F)(F)C(F)(OC(F)(F)C(F)(F)C(F)(F)F)C(F)(F)F)C(F)(F)F)C(F)(F)F (stereo not shown) [FE-E3, 1,1,1,2,2,3,3-Heptafluoro-3-[(1,1,1,2,3,3-hexafluoro-3-{[1,1,1,2,3,3-hexafluoro-3-(1,2,2,2-tetrafluoroethoxy)-2-propanyl]oxy}-2-propanyl)oxy]propane]		-0.33	1.899		
FC(F)(F)C(F)(F)C(F)(F)C(F)(F)C(F)(F)C(F)(F)I [PFHxI, Perfluorohexyl iodide]	2.508	0.07			
CNS(=O)(=O)C(F)(F)C(F)(F)C(F)(F)C(F)(F)C(F)(F)C(F)(F)F [MeFHxSA, N-Methylperfluorohexanesulfonamide]	4.135	0.88			
C=C(C)C(=O)OCCC(F)(F)C(F)(F)C(F)(F)C(F)(F)C(F)(F)C(F)(F)C(F)(F)C(F)(F)F [8:2 FTMAC, 1H,1H,2H,2H-Perfluorodecyl methacrylate]		0.53	5.115		
FC(F)(F)C(F)(F)C(F)(F)C(F)(F)C(F)(F)C(F)(F)C(F)(F)C(F)(F)CCI [8:2 FTI, 1H,1H,2H,2H-Perfluorodecyl iodide]	4.455	0.32			
C=CC(F)(F)C(F)(F)C(F)(F)C(F)(F)C(F)(F)C(F)(F)C(F)(F)C(F)(F)C=C [1,8-DVPFO, 1,8-Divinylperfluorooctane]	3.927	0.44			
C=CCOC(F)(C(F)(F)F)C(F)(F)F [APFIPE, Allyl perfluoroisopropyl ether]	1.717	0.15			
FC(OC(F)(F)C(F)(OC(F)(F)C(F)(OC(F)(F)C(F)(OC(F)(F)C(F)(F)C(F)(F)F)C(F)(F)F)C(F)(F)F)C(F)(F)F)C(F)(F)F (stereo not shown) [FE-E4, 1,1,1,2,4,4,5,7,7,8,10,10,11,13,13,14,14,15,15 ,15-Eicosafluoro-5,8,11-tris(trifluoromethyl)-3,6,9,12-tetraoxapentadecane]		-0.55	2.542		
